Measured values as given in PubChem BioAssay (NCI).
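Tested at 5 concentrations; 48 h exposure; 96-well plates; endpoints linearly interpolated, else capped at highest concentration. TGI marks complete inhibition of growth.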

Experiments:
Experiment in all cases: NCI tumour cell line growth inhibition, 48 h
DMS 273 small cell lung = tested on: DMS 273 small cell lung
HOP-18 NSCLC = tested on: HOP-18 NSCLC
KM20L2 colon = tested on: KM20L2 colon
LXFL 529 NSCLC = tested on: LXFL 529 NSCLC
RXF-631 renal = tested on: RXF-631 renal
SNB-78 CNS = tested on: SNB-78 CNS
XF 498 CNS = tested on: XF 498 CNS
MDA-N = tested on: MDA-N
DMS 114 small cell lung = tested on: DMS 114 small cell lung
P388 leukemia = tested on: P388 leukemia
P388/ADR leukemia = tested on: P388/ADR leukemia
SN12K1 renal = tested on: SN12K1 renal

O=C1CC(C[C@H](O)C2CCCCC2O)CC(=O)N1Cc1ccccc1 (stereo partly drawn)
TGI (DMS 273 small cell lung): > 100 µM | TGI (HOP-18 NSCLC): > 100 µM | TGI (KM20L2 colon): > 100 µM | TGI (LXFL 529 NSCLC): > 100 µM | TGI (RXF-631 renal): > 100 µM | TGI (SNB-78 CNS): > 100 µM | TGI (XF 498 CNS): > 100 µM

O=C(CC(O)(C(F)(F)F)C(F)(F)F)c1cc(CC(=O)C(O)(C(F)(F)F)C(F)(F)F)cc(CC(=O)C(O)(C(F)(F)F)C(F)(F)F)c1
TGI (MDA-N): > 9.13 µM

O=c1cc(-c2ccccc2)[nH]c2c(S)cccc12
TGI (MDA-N): > 100 µM

O=C1c2ccccc2C2(O)c3cc4ccccc4cc3OC12O (stereo not drawn)
TGI (DMS 114 small cell lung): 99 µM | TGI (DMS 273 small cell lung): > 100 µM | TGI (HOP-18 NSCLC): > 100 µM | TGI (KM20L2 colon): > 100 µM | TGI (LXFL 529 NSCLC): > 100 µM | TGI (SNB-78 CNS): > 100 µM

CC(=O)n1c2c(c(=O)n1-c1ccccc1)S(=O)CCC2 (stereo not drawn)
TGI (DMS 114 small cell lung): > 100 µM | TGI (DMS 273 small cell lung): > 100 µM | TGI (KM20L2 colon): > 100 µM | TGI (LXFL 529 NSCLC): > 100 µM | TGI (RXF-631 renal): > 100 µM | TGI (SNB-78 CNS): > 100 µM | TGI (XF 498 CNS): > 100 µM

CC1=C2CCCC2=C/C(=N/Nc2ccc([N+](=O)[O-])cc2[N+](=O)[O-])CC1
TGI (DMS 114 small cell lung): > 100 µM | TGI (DMS 273 small cell lung): > 100 µM | TGI (HOP-18 NSCLC): > 100 µM | TGI (KM20L2 colon): > 100 µM | TGI (LXFL 529 NSCLC): > 100 µM | TGI (SNB-78 CNS): > 100 µM | TGI (XF 498 CNS): > 100 µM

O=[N+]([O-])c1ccc(-n2nnc(C3=NCCN3)c2-c2ccc(Cl)cc2)cc1
TGI (DMS 114 small cell lung): > 100 µM | TGI (DMS 273 small cell lung): > 100 µM | TGI (HOP-18 NSCLC): > 100 µM | TGI (KM20L2 colon): > 100 µM | TGI (LXFL 529 NSCLC): > 100 µM | TGI (SNB-78 CNS): > 100 µM | TGI (XF 498 CNS): > 100 µM

O=c1n(-c2ccccc2)c(=O)n2n1C1C=CC2C2C(C1)C2(Cl)Cl (stereo not drawn)
TGI (DMS 114 small cell lung): > 100 µM | TGI (DMS 273 small cell lung): > 100 µM | TGI (KM20L2 colon): > 100 µM | TGI (LXFL 529 NSCLC): > 100 µM | TGI (RXF-631 renal): > 100 µM | TGI (SNB-78 CNS): > 100 µM | TGI (XF 498 CNS): > 100 µM

O=C(O)CSc1n[nH]c(-c2ccccc2)n1
TGI (DMS 273 small cell lung): > 100 µM | TGI (HOP-18 NSCLC): > 100 µM | TGI (KM20L2 colon): > 100 µM | TGI (LXFL 529 NSCLC): > 100 µM | TGI (XF 498 CNS): > 100 µM

COC1[C@@H](OC(C)=O)[C@@H](NC(=O)C(Cl)(Cl)Cl)C(I)[C@@H](N2C(=O)c3ccccc3C2=O)[C@H]1OC (stereo partly drawn)
TGI (DMS 114 small cell lung): > 100 µM | TGI (DMS 273 small cell lung): > 100 µM | TGI (HOP-18 NSCLC): > 100 µM | TGI (KM20L2 colon): > 100 µM | TGI (LXFL 529 NSCLC): > 100 µM | TGI (SNB-78 CNS): > 100 µM

Cc1ccc(-c2nc3ccc([N+](=O)[O-])cc3[nH]2)cc1
TGI (MDA-N): > 100 µM

CCc1c(OC(C)=O)c2c(NC3OC(COC(C)=O)C(OC(C)=O)C(OC(C)=O)C3OC(C)=O)nc(OC)nc2oc1=O (stereo not drawn)
TGI (DMS 114 small cell lung): > 100 µM | TGI (DMS 273 small cell lung): > 100 µM | TGI (HOP-18 NSCLC): > 100 µM | TGI (KM20L2 colon): > 100 µM | TGI (LXFL 529 NSCLC): > 100 µM | TGI (SNB-78 CNS): > 100 µM | TGI (XF 498 CNS): > 100 µM

Cc1c(Cl)cccc1N1C(=O)C(Cl)=C(Cl)C1=O
TGI (DMS 114 small cell lung): > 100 µM | TGI (DMS 273 small cell lung): > 100 µM | TGI (HOP-18 NSCLC): > 100 µM | TGI (KM20L2 colon): > 100 µM | TGI (LXFL 529 NSCLC): > 100 µM | TGI (SNB-78 CNS): > 100 µM | TGI (XF 498 CNS): > 100 µM

N=c1ccn2c(n1)OC1C(O)C(CO)OC12 (stereo not drawn)
TGI (DMS 114 small cell lung): > 163 µM | TGI (DMS 273 small cell lung): > 364 µM | TGI (HOP-18 NSCLC): > 662 µM | TGI (KM20L2 colon): > 562 µM | TGI (P388 leukemia): 4.37 µM | TGI (P388/ADR leukemia): 5.13 µM | TGI (SN12K1 renal): > 1000 µM | TGI (SNB-78 CNS): > 1000 µM | TGI (XF 498 CNS): > 1000 µM

Cc1ccc(Cn2c(C)nc3c2C(=O)c2ccccc2C3=O)cc1
TGI (DMS 273 small cell lung): 19 µM | TGI (KM20L2 colon): > 100 µM | TGI (LXFL 529 NSCLC): 58 µM | TGI (SNB-78 CNS): > 100 µM | TGI (XF 498 CNS): 47.6 µM

CCC1C2C=CC(CC2)N1S(=O)(=O)c1ccc(C)cc1 (stereo not drawn)
TGI (DMS 114 small cell lung): 58.1 µM | TGI (DMS 273 small cell lung): 60.2 µM | TGI (KM20L2 colon): 38.2 µM | TGI (LXFL 529 NSCLC): 55.5 µM | TGI (RXF-631 renal): > 100 µM

O=C(N/N=C1/C(=O)N(c2ccc(Cl)cc2Cl)C(=O)C(=O)C1c1nc2ccccc2o1)c1ccccc1O (stereo not drawn)
TGI (DMS 114 small cell lung): 78.5 µM | TGI (KM20L2 colon): > 100 µM | TGI (LXFL 529 NSCLC): > 100 µM | TGI (XF 498 CNS): 75.2 µM

COc1ccc(/C(=N\NC(=O)C(N)=O)C(c2ccc(OC)cc2)C2(O)C(=O)Nc3c(Cl)cccc32)cc1 (stereo not drawn)
TGI (DMS 114 small cell lung): > 100 µM | TGI (HOP-18 NSCLC): > 100 µM | TGI (KM20L2 colon): > 100 µM | TGI (LXFL 529 NSCLC): > 100 µM | TGI (SNB-78 CNS): > 100 µM | TGI (XF 498 CNS): > 100 µM

CCOC(=O)C(C)(C)Oc1ccc2c(C)c(-c3ccc(Cl)cc3)c(=O)oc2c1
TGI (DMS 114 small cell lung): > 100 µM | TGI (DMS 273 small cell lung): > 100 µM | TGI (KM20L2 colon): > 100 µM | TGI (LXFL 529 NSCLC): > 100 µM | TGI (RXF-631 renal): > 100 µM | TGI (XF 498 CNS): 83.9 µM

CC(=O)O[C@H]1CCC2[C@@H]3CCC4=C(O)c5nocc5C[C@]4(C)C3CC[C@@]21C (stereo partly drawn)
TGI (DMS 114 small cell lung): > 100 µM | TGI (DMS 273 small cell lung): > 100 µM | TGI (HOP-18 NSCLC): > 100 µM | TGI (KM20L2 colon): > 100 µM | TGI (LXFL 529 NSCLC): > 100 µM | TGI (SNB-78 CNS): > 100 µM | TGI (XF 498 CNS): > 100 µM

Oc1cc(O)c2c(c1)OC(c1ccc(O)c(O)c1)C(OC1(c3cc(O)c(O)c(O)c3)Oc3cc(O)cc(O)c3C(O)C1O)C2 (stereo not drawn)
TGI (MDA-N): 49.5 µM

O=C(NC(=O)c1cn(CCNCCO)c(=O)[nH]c1=O)OCc1ccccc1
TGI (DMS 114 small cell lung): > 100 µM | TGI (LXFL 529 NSCLC): > 100 µM | TGI (SNB-78 CNS): > 100 µM

COc1ccc(-c2cc(-c3ccccc3)c(C#N)c(=O)n2C2OC(CO)C(O)C(O)C2O)cc1 (stereo not drawn)
TGI (DMS 114 small cell lung): > 100 µM | TGI (DMS 273 small cell lung): > 100 µM | TGI (HOP-18 NSCLC): > 100 µM | TGI (KM20L2 colon): > 100 µM | TGI (LXFL 529 NSCLC): > 100 µM | TGI (RXF-631 renal): > 100 µM | TGI (SNB-78 CNS): > 100 µM

Cc1nc2ccccc2nc1-c1ccc(N=[N+]([O-])c2ccc(-c3nc4ccccc4nc3C)cc2)cc1
TGI (MDA-N): > 100 µM
